Laboratory results taken from patent EP0429372A1, “2-Azolyl nicotinate derivatives as herbicides” (RHONE-POULENC AGROCHIMIE, priority 1989, dated 1991).

What was measured:
Type in all cases: in vivo
[1] = tested on: Zea mays; experiment: Example C: selectivity test in major crops, post-emergence application; conditions: crop (Maïs), dose 2 kg/ha, 24 days, score 0-5, 0 or 1 = selective; also: ranges in brackets are in %
Excerpt: (§1) Dans des pots de 7 x 7 x 8 cm remplis de terre agricole légère, on sème un nombre de graines déterminé en fonction de l'espèce végétale et de la grosseur de la graine.
(§2) On recouvre ensuite les graines d'une couche de terre d'environ 3 mm d'épaisseur et on laisse germer la graine jusqu'à ce qu'elle donne naissance à une plantule au stade convenable. Le stade de traitement pour les graminées est le stade "deuxième feuille en formation". Le stade de traitement pour les dicotylédones, est le stade "cotylédons étalés, première feuille vraie en développement".
(§3) Les pots sont alors traités par pulvérisation de bouillie en quantité correspondant à une dose volumique d'application de 500 l/ha et contenant la matière active à la concentration désirée.
(§4) La bouillie a été préparée de la même manière qu'à l'exemple A.
(§5) Les pots traités sont ensuite placés dans des bacs destinés à recevoir l'eau d'arrosage, en subirrigation, et maintenus pendant 24 jours à température ambiante sous 70 % d'humidité relative.
(§6) Au bout de 24 jours, on mesure un pourcentage (D) de destruction du nombre de pieds dans le pot traité par rapport au nombre de plantes dans les pots non traités (témoin). On mesure, sur les plantes traitées restantes, le pourcentage de réduction de taille (RT) par rapport aux plantes témoin.
(§7) Le pourcentage de volume foliaire non détruit par le produit est donc donné par la formule : [formula]
(§8) Cette valeur A est transformée en notation de 0 à 5 selon l'échelle suivante :
(§9) Ainsi, un produit est jugé comme sélectif vis à vis de la culture lorsque la valeur A notée est de 0 ou 1.
(§10) Les résultats obtenus sont présentés dans l'exemple C pour des doses d'application comprises entre 0,5 et 4 kg de matière active par hectare selon les produits.

[2] = tested on: Oryza sativa; experiment: as above; conditions: crop (Riz), dose 2 kg/ha, 24 days, score 0-5, 0 or 1 = selective; also: ranges in brackets are in %
Excerpt: as §1, §2, §3, §4, §5, §6, §7, §8, §9, §10

[3] = tested on: Ipomea pupurea; experiment: as above; conditions: weed, post-emergence, dose 2 kg/ha, 24 days, score 0-5
Excerpt: as §1, §2, §3, §4, §5, §6, §7, §8, §9, §10

[4] = tested on: Solanum nigrum; experiment: as above; conditions: weed, dose 2 kg/ha, 24 days, score 0-5
Excerpt: as §1, §2, §3, §4, §5, §6, §7, §8, §9, §10

[5] = tested on: Sesbania exaltata; experiment: as above; conditions: weed, dose 2 kg/ha, 24 days, score 0-5
Excerpt: as §1, §2, §3, §4, §5, §6, §7, §8, §9, §10

[6] = tested on: Sinapis alba; experiment: as above; conditions: weed, dose 2 kg/ha, 24 days, score 0-5
Excerpt: as §1, §2, §3, §4, §5, §6, §7, §8, §9, §10

[7] = tested on: Xanthium pennsylvanicum; experiment: as above; conditions: weed, dose 2 kg/ha, 24 days, score 0-5
Excerpt: as §1, §2, §3, §4, §5, §6, §7, §8, §9, §10

[8] = tested on: Triticum aestivum; experiment: as above; conditions: crop (Blé), dose 2 kg/ha, 24 days, score 0-5, 0 or 1 = selective; also: ranges in brackets are in %
Excerpt: as §1, §2, §3, §4, §5, §6, §7, §8, §9, §10

[9] = tested on: Ipomea purpurea; experiment: Example B: post-emergence herbicidal application, pot test; conditions: 4 kg/ha, rated after 24 days, score 0-5 from % leaf volume not destroyed
Excerpt: as §1
as §2, with “formation ".” for “formation".”
as §3
(§11) La bouille a été préparée de la même manière qu'à l'exemple A.
as §5, §6
(§12) Le pourcentage du volume foliaire non détruit par le produit est donc donné par la formule : [formula]
as §8
(§13) Les résultats obtenus sont présentés après le tableau A pour des doses d'application de 4000 g/ha.

[10] = tested on: Lolium multiflorum; experiment: as above; conditions: 4 kg/ha, rated after 24 days, score 0-5 from % leaf volume not destroyed
Excerpt: as §1
as §2, with “formation ".” for “formation".”
as §3, §11, §5, §6, §12, §8, §13

[11] = tested on: Digitaria sanguinalis; experiment: as above; conditions: 4 kg/ha, rated after 24 days, score 0-5 from % leaf volume not destroyed
Excerpt: as §1
as §2, with “formation ".” for “formation".”
as §3, §11, §5, §6, §12, §8, §13

[12] = tested on: Solanum nigrum; experiment: as above; conditions: 4 kg/ha, rated after 24 days, score 0-5 from % leaf volume not destroyed
Excerpt: as §1
as §2, with “formation ".” for “formation".”
as §3, §11, §5, §6, §12, §8, §13

[13] = tested on: Sinapis alba; experiment: as above; conditions: 4 kg/ha, rated after 24 days, score 0-5 from % leaf volume not destroyed
Excerpt: as §1
as §2, with “formation ".” for “formation".”
as §3, §11, §5, §6, §12, §8, §13

[14] = tested on: mauvaises herbes; experiment: Procedure 2 d): weed control, pre-emergence; conditions: 4000 g/ha (procédé 2D), visual rating 20 to 24 days after spraying, vs control pots
Excerpt: (§14) Des quantités appropriées des composés d'essai ont été dissoutes dans de l'acétone pour obtenir des solutions équivalant à des taux d'application de 250, 1000 ou 4000 g de composé d'essai par hectare (g/ha).
Les graines ont été semées dans des pots en matière plastique de 70 mm de côté et 75 mm de profondeur, dans de la terre non stérile provenant de Boarded Barns Farm ou un type de terre similaire provenant d'une source convenable. Les quantités de graines par pot étaient les suivantes :
Les composés de la présente invention ont été appliqués à la surface du sol, contenant les semences, de la manière décrite dans le paragraphe (a). Un seul pot de chaque plante cultivée et de chaque mauvaise herbe a été attribué à chaque traitement, en association avec des témoins n'ayant pas subi de pulvérisation et des témoins ayant subi une pulvérisation avec de l'acétone seule. Après traitement, les pots ont été maintenus dans une serre et ont été arrosés par aspersion pendant 3 jours, puis par une sous- irrigation controlée. L'évaluation visuelle des dégats infligés aux plantes cultivées a été effectuée 20 à 24 jours après pulvérisation. Les résultats ont été exprimés en pourcentage de réduction de croissance ou d'endommagement des plantes cultivées ou des mauvaises herbes, comparativement aux plantes présentes dans les pots témoins.

[15] = tested on: mauvaises herbes; conditions: post-emergence, 4000 g/ha
Excerpt: as §14
Les mauvaises herbes et les plantes cultivées ont été semées directement dans du compost de mise en pot John Innes dans des pots de 75 mm de profondeur et 70 mm de côté, sauf en ce qui concerne l'espèce du genre Amaranthus qui a été repiquée au stade de jeunes plants de semis et transférée dans les pots une semaine avant plulvérisation. Puis les plantes ont été cultivées dans la serre jusqu'à ce qu'elles soient prêtres à subir une pulvérisation avec les composés d'essai. Le nombre de plantes par pot étaient les suivants :
Les composés d'essai ont été appliqués aux plantes de la manière décrite dans le paragraphe (a). Un seul pot de chaque espèce de plante cultivée et de chaque espèce de mauvaise herbe a été attribué à chaque traitement, en association avec des témoins n'ayant pas subi de pulvérisation et des témoins ayant subi une pulvérisation avec de l'acétone seule.
Après traitement, les pots ont été maintenus dans une serre et ont été arrosés une fois par aspersion au bout de 24 heures, puis par sous - irrigation contrôlée. L'évaluation visuelle des dégâts infligés aux plantes cultivées et de la destruction des mauvaises herbes a été effectué 20 à 24 jours après pulvérisation. Les résultats ont été exprimés en pourcentage de réduction de croissance ou d'endommagement des plantes cultivées ou des mauvaises herbes, comparativement aux plantes présentes dans les pots témoins.

Row | Structure (SMILES) | ACTIVITE HERBICIDE DE POST LEVEE Z E A [1] | ACTIVITE HERBICIDE DE POST LEVEE O R Y [2] | ACTIVITE HERBICIDE DE POST LEVEE I P O [3] | ACTIVITE HERBICIDE DE POST LEVEE S O L [4] | ACTIVITE HERBICIDE DE POST LEVEE S E S [5] | ACTIVITE HERBICIDE DE POST LEVEE S I N [6] | ACTIVITE HERBICIDE DE POST LEVEE X A N [7] | ACTIVITE HERBICIDE DE POST LEVEE T R Z [8] | ACTIVITE DE POST-LEVEE IPO [9] | ACTIVITE DE POST-LEVEE LOL [10] | ACTIVITE DE POST-LEVEE DIG [11] | ACTIVITE DE POST-LEVEE SOL [12] | ACTIVITE DE POST-LEVEE SIN [13] | réduction de la croissance d'une ou plusieurs des espèces de mauvaises herbes [14] [%] | destruction d'une ou plusieurs des espèces de mauvaises herbes [15] [%]
1 | CN(C)S(=O)(=O)n1nc(-c2ccccc2)nc1-c1ncccc1C(=O)O [compound 7, Acide 3 - (3 - carboxy 2 - pyridyl) 2 - N,N - diméthyl sulfamoyl 5 - phényl 1,2,4 -triazole] | 0 (90 à 100) | 0 (90 à 100) | 4 (10 à 30) | 4 (10 à 30) | 5 (O à 10) | 5 (O à 10) | 4 (10 à 30) | 0 (90 à 100) | 4 (10 à 30) | 1 (70 à 90) | 1 (70 à 90) | 5 (O à 10) | 5 (O à 10) |  | 
2 | Cc1ccc2c(nc(-c3ncccc3C(=O)O)n2S(=O)(=O)N(C)C)c1C [compound 91] |  |  |  |  |  |  |  |  |  |  |  |  |  | ≥ 90 | ≥ 90
